Experimental data published in patent US20090045056A1, “Stable three enzyme creatinine biosensor” (priority 2004, published 2009).

What was measured:
sarcosine oxidase [1] = molecular target: T1, sarcosine oxidase (Bacillus sp., UniProt P40859); settings: cited from earlier work; for Ki: inhibitor of sarcosine oxidase
T1 sequence (P40859 1-390): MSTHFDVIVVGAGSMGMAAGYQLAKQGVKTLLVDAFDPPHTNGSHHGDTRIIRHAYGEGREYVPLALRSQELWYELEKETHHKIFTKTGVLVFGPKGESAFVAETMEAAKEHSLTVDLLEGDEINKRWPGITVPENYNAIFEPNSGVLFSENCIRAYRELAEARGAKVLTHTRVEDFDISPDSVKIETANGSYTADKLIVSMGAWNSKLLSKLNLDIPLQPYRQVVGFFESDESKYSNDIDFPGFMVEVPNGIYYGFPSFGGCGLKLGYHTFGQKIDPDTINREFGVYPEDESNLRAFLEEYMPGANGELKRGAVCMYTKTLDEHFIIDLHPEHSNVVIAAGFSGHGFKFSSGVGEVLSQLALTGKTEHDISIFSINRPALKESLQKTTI

[2] = tested on: creatinine amidohydrolase; settings: silver nitrate from 1 nM, 5 min to 1 hr incubation
Method: An enzyme solution (0.1 mL) was incubated with a mixture (0.90 mL) of 100 mM creatine in mM soditim phosphate (pH 7.5) at 37° C. for 10 minutes. After 10 minutes, the creatine/enzyme mixture (0.1 mL) was added to 0.5 M sodium hydroxide (1.9 mL) and 1% picric acid (1.0 mL). This solution was incubated for 20 minutes at room temperature and the absorbance at 520 nm was measured. One unit was defined as the amount of enzyme which catalyzed the formation of 1 μmol of creatinine per minute.
Samples were removed periodically and assayed using the end point assay.

sarcosine oxidase [3] = molecular target: sarcosine oxidase (Arthrobacter sp., UniProt P40873); settings: 1 nM to 1 mM silver nitrate, various incubation times, residual activity assayed in absence of silver
Method: Typically, an enzyme solution (0.05 mL) was incubated with a mixture (1.0 mL total) of 95 mM sarcosine, 0.47 mM 4-aminoantipyrene, 2 mM phenol, 0.045% Triton X-100, 50 mM sodium phosphate (pH 8.0) and 5 units/mL of horseradish peroxidase at 37° C. for 10 minutes. The reaction was terminated by addition of 2.0 mL of 0.25% SDS solution and the absorbance at 500 nm was measured. One unit was defined as the amount of enzyme that catalyzed the oxidation of 1). mol of substrate per minute.
Samples were removed periodically and assayed using the end point assay for sarcosine oxidase activity.

[4] = tested on: creatine amidinohydrolase; settings: 5-100 μM silver nitrate
Method: Creatine amidinohydrolase activity was monitored using a colorimetric assay that measures urea formation from the hydrolysis of creatine (Tsuchida and Yoda, Clin. Chem. 29:51-55 (1983)). An enzyme solution (0.1 mL) was incubated with a mixture (0.90 mL) of 100 mM creatine in sodium phosphate buffer (50 mM, pH 7.5) at 37° C. for 10 minutes. The reaction was stopped by adding 2.0 mL of a solution containing Ehrlich's reagent (2.0 g of p-dimethyl aminobenzaldehyde in 100 mL of dimethyl sulfoxide plus 15 mL of concentrated HCl). The solution was incubated for 20 minutes at room temperature and the absorbance at 435 nm was measured. One unit was defined as the amount of enzyme that catalyzes the hydrolysis of 1 μmol of substrate per minute.
Samples were removed periodically and assayed using the end point assay. […] After 10 minutes of incubation, the stop solution (p-dimethyl benzaldehyde solution) was added.

[5] = tested on: creatine amidinohydrolase; experiment: Additives to prevent silver inhibition of creatine amidinohydrolase; type: biochemical, Actinobacilus sp.; settings: 50 mM additive, pre-incubation
Method: Creatine amidinohydrolase (1.0 mg/ml) was prepared in solution with either 50 mM EDT A, 50 mM EGT A, 50 mM mercaptoethanol, 50 mM DTT or 50 mM cysteine with 20 mM Tris, pH 7.5.

Chain of sarcosine oxidase (Arthrobacter sp., UniProt P40873) (P40873 whole entry): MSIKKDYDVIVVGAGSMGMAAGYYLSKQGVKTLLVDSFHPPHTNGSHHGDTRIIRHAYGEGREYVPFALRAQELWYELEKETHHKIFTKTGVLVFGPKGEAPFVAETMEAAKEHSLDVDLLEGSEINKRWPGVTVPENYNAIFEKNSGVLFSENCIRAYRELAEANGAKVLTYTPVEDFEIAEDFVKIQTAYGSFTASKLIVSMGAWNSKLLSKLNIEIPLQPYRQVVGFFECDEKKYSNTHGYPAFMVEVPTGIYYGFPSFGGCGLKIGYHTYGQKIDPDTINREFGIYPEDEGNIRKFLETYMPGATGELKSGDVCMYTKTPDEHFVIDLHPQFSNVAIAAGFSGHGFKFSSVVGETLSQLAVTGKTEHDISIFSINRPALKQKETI

Compound: O=C(O)c1ccc[nH]1 [Pyrrole-2-carboxylic acid]
- Ki (sarcosine oxidase [1]): 1.37 mM

Compound: CNCC(=O)O [sarcosine]
- Km (sarcosine oxidase [1]; native substrate of sarcosine oxidase): 600 µM

Compound: O=[N+]([O-])[O-].[Ag+] [silver nitrate]
- inhibition of creatinine amidohydrolase by silver ions [2]: effective inhibitor of creatinine amidinohydrolase at high concentrations
- inhibition of sarcosine oxidase by silver ions (sarcosine oxidase [3]): effective irreversible inhibitor
- inhibition of creatine amidinohydrolase by silver ions [4]: completely inhibiting enzyme activity

Compound: OCCS [mercaptoethanol]
- prevention of silver inhibition of creatine amidinohydrolase [5]: effectively prevented

Compound: O[C@@H](CS)[C@@H](O)CS [DTT]
- prevention of silver inhibition of creatine amidinohydrolase [5]: effectively prevented

Compound: N[C@@H](CS)C(=O)O [cysteine]
- prevention of silver inhibition of creatine amidinohydrolase [5]: effectively prevented

Compound: CSCC(=O)O [(methylthio)acetic acid]
- Ki (sarcosine oxidase [1]): 2.6 mM
